The source made the active and inactive calls. No cut-off for these calls is given here.

The species entered for the first test is Rattus norvegicus. The experiment in a line: Inhibition of rat intestinal alpha-glucosidase activity at 100 ugmL.
The inhibition is the percentage by which the read-out fell short of the control. As for `C=C1[C@@H](O)CC2C(C)(C)CCC[C@]2(C)[C@H]1C/C=C1\CCOC1=O` (stereo partly specified), the inhibition worked out at 11.3%.
Same read-out and setting: for `CC1=CC(=O)[C@H]2C(C)(C)CCC[C@]2(C)[C@H]1/C=C/c1ccoc1` the value was 55.6%.
The compound `CO[C@@H]1OC(=O)C=C1/C=C/[C@H]1C(C)=CC(=O)[C@H]2C(C)(C)CCC[C@]12C` registered an inhibition of 54.1%.
Same read-out and setting: the result for `CC(=O)OC1=C(C)[C@H](/C=C/c2ccoc2)[C@@]2(C)CCCC(C)(C)[C@@H]2C1=O` reads 25.7%; that for `C=C1CC[C@H]2C(C)(C)CCC[C@]2(C)[C@H]1C`, “inactive”.
Regarding `CC1=CC(=O)[C@H]2C(C)(C)CCC[C@]2(C)[C@H]1/C=C/C1=CC(=O)OC1`, the inhibition turned out to be 35.1%.
`CC1=C(O)C(=O)[C@H]2C(C)(C)CCC[C@]2(C)[C@H]1/C=C/c1ccoc1` had an inhibition of 13.5%.
In turn, `CC1(C)CCC[C@]2(C)[C@@H](/C=C/c3ccoc3)C(CO)=CC(=O)[C@@H]12` showed an inhibition of 15.1%.
The same measure, in the same setting: for `CC1=CC(=O)[C@H]2C(C)(C)CCC[C@]2(C)[C@H]1/C=C/C1=CC(=O)O[C@H]1O` [SPICATANOL] the value was 89.5%.

Target in a further test: not listed separately
The experiment in a line: Inhibition of rat intestinal alpha-glucosidase activity.
The IC50 is the midpoint of a concentration-inhibition curve. On to `C[C@H]1O[C@H](O[C@H]2[C@H](O)[C@@H](O)[C@@H](O[C@H]3[C@H](O)[C@@H](O)C(O)O[C@@H]3CO)O[C@@H]2CO)[C@H](O)[C@@H](O)[C@@H]1N[C@H]1C=C(CO)[C@@H](O)[C@H](O)[C@H]1O` (stereo partly specified) [ACARBOSE], for which half-maximal inhibition (IC50) was put at 23.8 µM.
On to `CC1=CC(=O)[C@H]2C(C)(C)CCC[C@]2(C)[C@H]1/C=C/C1=CC(=O)O[C@H]1O` [SPICATANOL], for which the IC50 was 34.1 µM.

The values are drawn from ChEMBL document CHEMBL1138603, “New Labdane diterpenes as intestinal alpha-glucosidase inhibitor from antihyperglycemic extract of Hedychium spicatum (Ham. Ex Smith) rhizomes” (Bioorg Med Chem Lett, 2009).
